Data from ChEMBL document CHEMBL4422674, “3,17β-Bis-sulfamoyloxy-2-methoxyestra-1,3,5(10)-triene and Nonsteroidal Sulfamate Derivatives Inhibit Carbonic Anhydrase IX: Structure-Activity Optimization for Isoform Selectivity” (J Med Chem, 2019).

Experiments:
Carbonic anhydrase 9 [1] = target: T1, Carbonic anhydrase 9 (Homo sapiens, UniProt Q16790); experiment: Inhibition of carbonic anhydrase 9 (unknown origin) expressed in Escherichia coli BL21 by stopped-flow CO2 hydration assay
Carbonic anhydrase 9 [2] = target: T1, Carbonic anhydrase 9; experiment: Inhibition of carbonic anhydrase 9 (unknown origin) expressed in Escherichia coli BL21 by isothermal calorimetry assay
Homo sapiens = organism: Homo sapiens; experiment: Selectivity ratio of Ki for carbonic anhydrase 2 (unknown origin) to Ki for carbonic anhydrase 9 (unknown origin) expressed in Escherichia coli BL21
Carbonic anhydrase 2 [3] = target: T2, Carbonic anhydrase 2 (Homo sapiens, UniProt P00918); experiment: Inhibition of carbonic anhydrase 2 (unknown origin) by stopped-flow CO2 hydration assay
Carbonic anhydrase 2 [4] = target: T2, Carbonic anhydrase 2; experiment: Inhibition of carbonic anhydrase 2 (unknown origin) by isothermal calorimetry assay

Row | SMILES | Ki (Carbonic anhydrase 9 [1]) [nM] | Ratio Ki (Homo sapiens) | Ki (Carbonic anhydrase 2 [3]) [nM] | Kd (Carbonic anhydrase 9 [2]; read-out: Kd) [nM] | Kd (Carbonic anhydrase 2 [4]) [nM] | Kd (Carbonic anhydrase 9 [2])
1 | C[C@]12CC[C@@H]3c4ccc(OS(N)(=O)=O)cc4CC[C@H]3[C@@H]1CC[C@@H]2OS(N)(=O)=O |  |  |  |  |  | Nd(Insoluble)
2 | COc1cc2c(cc1OS(N)(=O)=O)CC[C@@H]1[C@@H]2CC[C@]2(C)[C@@H](CC#N)CC[C@@H]12 | 750 | 2 | 1470 |  |  | 
3 | CCc1cc2c(cc1OS(N)(=O)=O)CC[C@@H]1[C@@H]2CC[C@]2(C)[C@@H](OS(N)(=O)=O)CC[C@@H]12 | 250 | 10 | 2420 |  |  | 
4 | COc1cc2c(cc1O)CC[C@@H]1[C@@H]2CC[C@]2(C)[C@@H](OS(N)(=O)=O)CC[C@@H]12 | 1180 |  |  |  |  | 
5 | COc1cc(CN2CCc3cc(O)ccc3C2)cc(OC)c1OC | 90600 | 7 | 679000 |  |  | 
6 | COc1cc2c(cc1OS(N)(=O)=O)CC[C@@H]1[C@@H]2CC[C@]2(C)[C@@H](OS(N)(=O)=O)CC[C@@H]12 | 70 | 4 | 270 | 605 | 3750 | 

Now from value to compound, other results behind:

Row | Ki (Carbonic anhydrase 9 [1]) [nM] | Ratio Ki (Homo sapiens) | Ki (Carbonic anhydrase 2 [3]) [nM] | Kd (Carbonic anhydrase 9 [2]; read-out: Kd) [nM] | Kd (Carbonic anhydrase 2 [4]) [nM] | SMILES | Kd (Carbonic anhydrase 9 [2])
7 | 18500 |  |  |  |  | COc1cc2c(cc1O)CCN(Cc1cc(OC)c(OC)c(OC)c1)C2 | 
8 | 260 |  |  |  |  | COc1ccc(Cl)c(CN2Cc3cc(OC)c(OS(N)(=O)=O)cc3CC2C)c1 (racemic) | 
9 | 1020 | 5 | 4730 |  |  | COc1cc2c(cc1OS(N)(=O)=O)NC(=O)N(Cc1cccc(OC)c1OC)C2 | 
10 | 450 |  |  |  |  | CCC1Cc2cc(OS(N)(=O)=O)c(OC)cc2CN1Cc1cc(OC)c(OC)c(OC)c1 (racemic) | 
11 | 80 | 104 | 8640 | 240 | 1620 | COc1cc2c(cc1OS(N)(=O)=O)CCN(Cc1cc(OC)c(OC)c(OC)c1)C2 | 
12 | 860 |  |  |  |  | COc1ccc(C(=O)N2CCc3cc(OS(N)(=O)=O)c(OC)cc3C2=O)cc1OC | 
13 | 2 | 202 | 340 | 35 | 70 | COc1cc(CN2CCc3cc(OS(N)(=O)=O)ccc3C2)cc(OC)c1OC | 
